# Molecular target: T1, GlyT1 (Homo sapiens, UniProt P48067)
# T1 construct: Human placental choriocarcinoma cells endogenously expressing GlyT1; host or cells: JAR cells (human placental choriocarcinoma)
# T1 sequence (P48067 1-706): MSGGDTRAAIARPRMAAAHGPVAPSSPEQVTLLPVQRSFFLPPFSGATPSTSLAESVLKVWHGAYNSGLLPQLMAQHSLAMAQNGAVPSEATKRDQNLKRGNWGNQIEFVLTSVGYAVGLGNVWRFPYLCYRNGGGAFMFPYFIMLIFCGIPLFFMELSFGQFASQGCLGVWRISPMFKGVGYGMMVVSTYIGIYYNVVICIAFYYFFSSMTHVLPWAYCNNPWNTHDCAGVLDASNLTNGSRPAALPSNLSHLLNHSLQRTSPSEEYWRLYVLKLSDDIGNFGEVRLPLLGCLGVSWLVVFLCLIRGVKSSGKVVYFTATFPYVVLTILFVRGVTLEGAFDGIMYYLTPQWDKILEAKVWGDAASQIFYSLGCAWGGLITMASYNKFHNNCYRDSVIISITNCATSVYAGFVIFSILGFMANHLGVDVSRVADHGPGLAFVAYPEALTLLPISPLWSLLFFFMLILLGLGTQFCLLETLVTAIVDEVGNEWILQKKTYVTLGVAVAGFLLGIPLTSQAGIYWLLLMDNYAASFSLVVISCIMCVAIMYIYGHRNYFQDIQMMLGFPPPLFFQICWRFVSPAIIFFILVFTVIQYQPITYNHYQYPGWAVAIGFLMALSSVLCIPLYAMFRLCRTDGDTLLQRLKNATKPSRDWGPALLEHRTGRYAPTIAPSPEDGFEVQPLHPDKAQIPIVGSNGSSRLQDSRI
# Test: [14C]-glycine uptake in JAR cells (scintillation proximity, Cytostar T plates)
# Format: cell-based
# Conditions: read-out: Potency
# Experimental: Human placental choriocarcinoma cells endogenously expressing GlyT1 can be cultured using standard conditions. Cells can then be grown at 37° C. in a humidified atmosphere 40-48 hours before the assay. Culture medium can be removed from the culture plate, and cells can be incubated with an amount of TB1A buffer with or without the compounds of the present invention for a sufficient period of time. Then an amount of [^14C]-glycine diluted with TB1A can be added to each well. After incubation the microplates can be sealed and counted. Non-specific uptake of [^14C]-glycine can be determined in the presence of unlabeled glycine. To determine potencies, a range of concentrations of the compounds of the present invention can be added to the cells, followed by the fixed concentration of [^14C]-glycine. The concentration of the present compound that inhibited half of the specific uptake of [^14C]glycine (IC50 value) can be determined from the assay data by non-linear curve fitting.
# The procedure used was analogous to that disclosed in Williams, J. B.; Mallorga P. J.; Lemaire W.; Williams D. L.; Na S.; Patel S.; Conn J. P.; Pettibone D. J.; Austin C.; Sur C.; “Development of a scintillation proximity assay for analysis of Na+/Cl−-dependent neurotransmitter transporter activity,” ANAL. BIOCHEM.
# Cells were plated at a density of 1.3×10^4 cells/well and grown at 37° C. in a humidified atmosphere of 5% CO2 for 40-48 h. Culture medium was removed from the Cytostar T plate and JAR cells were incubated with 30 μl of TB1A buffer (120 mM NaCl, 2 mM KCl, 1 mM CaCl2, 1 mM MgCl2, 10 mM Hepes, 5 mM L-alanine, pH 7.5 adjusted with 1 M Tris base) with or without multiple concentrations of test compound (added at 2× final concentration) for 1 min. Then 30 μl of [^14C]-glycine (Perkin-Elmer) diluted in TB1A was added to each well to give a final concentration of 10 μM. Cytostar T plates were then incubated in the dark at room temperature for 3 h, sealed with opaque white bottom plate seals (Perkin-Elmer) and clear top plate seals (Topseal A, Perkin-Elmer), and were counted on a Top Count (Packard). Glycine uptake was determined by measuring radioactivity in each well and plotted as a function of concentration of test compound. […] Nonspecific uptake of [^14C]-glycine was determined in the presence of 10 mM cold glycine. [^14C]-taurine (American Radiolabeled Chemicals, Inc.) uptake experiments were performed according to the same protocol except that 10 mM cold taurine was used to determine nonspecific uptake. […] COS-7 cells were transiently transfected with the human GlyT2 cDNA (Origene Technologies Inc., SC303452) using Fugene 6 (Roche) according to the manufacturer's instructions in Dulbecco's modified Eagle's medium (DMEM, Invitrogen) containing 10% Fetal Bovine Serum, 10 mM HEPES, 1 mM sodium pyruvate, penicillin (100 μg/ml), and streptomycin (100 μg/ml). The following day, the cells were plated at a density of 5×10^5 cells/well in Cytostar T plates and maintained at 37° C. in a humidified atmosphere of 5% CO2 for 24 h. GlyT2 glycine uptake experiments were performed according to the same protocol previously described.
row,SMILES,IC50 [nM]
1,CCS(=O)(=O)N1CC2C(C1)C2(CNC(=O)c1ccc(Cl)cc1Cl)CC1CC1 (stereo not drawn) [Compound 8a],1300
2,CCCS(=O)(=O)N1CC2C(C1)C2(CNC(=O)c1ccccc1F)CC1CC1 (stereo not drawn) [Compound 9a],2100
3,Cn1cc(S(=O)(=O)N2CC3C(C2)C3(CNC(=O)c2ccc(Cl)cc2Cl)c2ccccn2)cn1 (stereo not drawn) [Compound 12e],> 20000
4,O=C(NCC1(CC2CC2)C2CN(S(=O)(=O)CC3CC3)CC21)c1ccc(F)cc1F (stereo not drawn) [Compound 9i],1020
5,CCCS(=O)(=O)N1CC2C(C1)C2(CNC(=O)c1cccc(C(F)(F)F)c1)CC1CC1 (stereo not drawn) [Compound 9d],4500
6,O=C(NCC1(CC2CC2)C2CN(S(=O)(=O)CC3CC3)CC21)c1ccc(C(F)(F)F)cc1 (stereo not drawn) [Compound 9h],629
7,CC(C)S(=O)(=O)N1CC2C(C1)C2(CNC(=O)c1ccc(Cl)cc1Cl)CC1CC1 (stereo not drawn) [Compound 8c],3400
8,O=C(NCC1(CC2CC2)C2CN(S(=O)(=O)CC3CC3)CC21)c1c(F)cccc1F (stereo not drawn) [Compound 9j],1020
9,O=C(NCC1(CC2CC2)C2CN(S(=O)(=O)CC3CC3)CC21)c1ccccc1C(F)(F)F (stereo not drawn) [Compound 9g],688
10,CCCS(=O)(=O)N1CC2C(C1)C2(CNC(=O)c1ccccc1Cl)CC1CC1 (stereo not drawn) [Compound 9b],1200
11,CCS(=O)(=O)N1CC2C(C1)C2(CNC(=O)c1ccc(Cl)cc1Cl)c1ccccn1 (stereo not drawn) [Compound 12b],> 20000
12,O=C(NCC1(c2ccccn2)C2CN(S(=O)(=O)c3ccccc3)CC21)c1ccc(Cl)cc1Cl (stereo not drawn) [Compound 12f],> 20000
13,CCCS(=O)(=O)N1CC2C(C1)C2(CNC(=O)c1ccc(C(F)(F)F)cc1)CC1CC1 (stereo not drawn) [Compound 9e],1100
14,O=C(NCC1(c2ccccn2)C2CN(S(=O)(=O)c3ccccn3)CC21)c1ccc(Cl)cc1Cl (stereo not drawn) [Compound 12g],> 20000
15,CCCS(=O)(=O)N1CC2C(C1)C2(CNC(=O)c1ccc(Cl)cc1)CC1CC1 (stereo not drawn) [Compound 9c],1850
16,CS(=O)(=O)N1CC2C(C1)C2(CNC(=O)c1ccc(Cl)cc1Cl)c1ccccn1 (stereo not drawn) [Compound 12a],> 20000
17,CCCS(=O)(=O)N1CC2C(C1)C2(CNC(=O)c1ccc(Cl)cc1Cl)c1ccccn1 (stereo not drawn) [Compound 12c],> 20000

# The next molecules have a lower IC50 than those just listed; values first:
row,IC50 [nM],SMILES
1,507,CCCS(=O)(=O)N1CC2C(C1)C2(CNC(=O)c1ccc(F)cc1Cl)CC1CC1 (stereo not drawn) [Compound 9f]
2,457,Cn1cnc(S(=O)(=O)N2CC3C(C2)C3(CNC(=O)c2ccccc2Cl)c2ccccn2)c1 (stereo not drawn) [Compound 13a]
3,361,CCCS(=O)(=O)N1CC2C(C1)C2(CNC(=O)c1ccc(Cl)cc1Cl)CC1CC1 (stereo not drawn) [Compound 8b]
4,240,"Cn1cnc(S(=O)(=O)N2CC3C(C2)C3(CNC(=O)c2ccc(Cl)cc2Cl)c2ccccn2)c1 (stereo not drawn) [Compound 12d, 2,4-dichloro-N-((3-(1-methyl-1H-imidazol-4-ylsulfonyl)-6-(pyridine-2-yl)-3-azabicyclo[3.1.0]hexan-6-yl)methyl)benzamide]"
5,231,"O=C(NCC1(CC2CC2)C2CN(S(=O)(=O)CC3CC3)CC21)c1ccc(Cl)cc1Cl (stereo not drawn) [Compound 8d, 2,4-Dichloro-N-((6-(cyclopropylmethyl)-3-(cyclopropylmethylsulfonyl)-3-azabicyclo[3.1.0]hexan-6-yl)methyl)benzamide]"
6,190,"Cn1cnc(S(=O)(=O)N2CC3C(C2)C3(CNC(=O)c2ccccc2C(F)(F)F)c2ccccn2)c1 (stereo not drawn) [Compound 13b, 2-Trifluoromethyl-N-((6-(pyridin-2-yl)-3-(1-methyl-1H-imidazol-4-ylsulfonyl)-3-azabicyclo[3.1.0]hexan-6-yl)methyl)benzamide]"
7,119,Cn1cnc(S(=O)(=O)N2CC3C(C2)C3(CNC(=O)c2cccc(Cl)c2)CC2CC2)c1 (stereo not drawn) [Compound 6j]
8,100,Cn1cnc(S(=O)(=O)N2CC3C(C2)C3(CNC(=O)c2cc(Cl)cc(Cl)c2)CC2CC2)c1 (stereo not drawn) [Compound 6i]
9,82,Cn1cnc(S(=O)(=O)N2CC3C(C2)C3(CNC(=O)c2ccc(Cl)c(Cl)c2)CC2CC2)c1 (stereo not drawn) [Compound 6d]
10,64,Cn1cnc(S(=O)(=O)N2CC3C(C2)C3(CNC(=O)c2cccc(C(F)(F)F)c2)CC2CC2)c1 (stereo not drawn) [Compound 6g]
11,44,Cn1cnc(S(=O)(=O)N2CC3C(C2)C3(CNC(=O)c2ccc(F)cc2F)CC2CC2)c1 (stereo not drawn) [Compound 6h]
12,32,Cn1cnc(S(=O)(=O)N2CC3C(C2)C3(CNC(=O)c2ccc(Cl)cc2)CC2CC2)c1 (stereo not drawn) [Compound 6c]
13,18.6,Cn1cnc(S(=O)(=O)N2CC3C(C2)C3(CNC(=O)c2ccccc2Cl)CC2CC2)c1 (stereo not drawn) [Compound 6b]
14,5,Cn1cnc(S(=O)(=O)N2CC3C(C2)C3(CNC(=O)c2ccccc2C(F)(F)F)CC2CC2)c1 (stereo not drawn) [Compound 6f]
15,4.1,"Cn1cnc(S(=O)(=O)N2CC3C(C2)C3(CNC(=O)c2ccc(Cl)cc2Cl)CC2CC2)c1 (stereo not drawn) [Compound 6a, 2,4-dichloro-N-((6-(cyclopropylmethyl)-3-(1-methyl-1H-imidazol-4-ylsulfonyl)-3-azabicyclo[3.1.0]hexan-6-yl)methyl)benzamide]"
16,4,Cn1cnc(S(=O)(=O)N2CC3C(C2)C3(CNC(=O)c2c(F)cccc2F)CC2CC2)c1 (stereo not drawn) [Compound 6e]
